Laboratory results as given in ChEMBL document CHEMBL3046331, “Ethyl 4-[(1-substituted indol-2-yl)methoxy]benzoates and indoline derivatives: Anti-juvenile hormone and juvenile hormone activities” (2009).
The source made the active and inactive calls. The rule behind the calls is not given here.

Assays:
Bombyx mori [1] = test: Juvenile hormone activity in allatectomized fourth-instar larvae of Bombyx mori assessed as number of larvae transformed into fifth instar larvae at 1 ug/larvae topically applied to the dorsal abdomen; type: functional, organism-based
Bombyx mori [2] = test: Juvenile hormone activity in allatectomized fourth-instar larvae of Bombyx mori assessed as number of larvae transformed into larval-pupal intermediate at 1 ug/larvae topically applied to the dorsal abdomen; type: functional, organism-based
Bombyx mori [3] = test: Juvenile hormone activity in allatectomized fourth-instar larvae of Bombyx mori assessed as number of larvae transformed into precocious pupa at 1 ug/larvae topically applied to the dorsal abdomen; type: functional, organism-based
Bombyx mori [4] = test: Juvenile hormone activity in allatectomized fourth-instar larvae of Bombyx mori assessed as number of larvae transformed into precocious pupa at 40 ug/larvae topically applied to the dorsal abdomen; type: functional, organism-based
Bombyx mori [5] = test: Antijuvenile hormone activity in third-instar larvae of Bombyx mori assessed as induction of precocious metamorphosis at 40 ug/larvae topically applied to the dorsal abdomen; type: functional
Bombyx mori [6] = test: Juvenile hormone activity in allatectomized fourth-instar larvae of Bombyx mori assessed as number of larvae transformed into fifth instar larvae at 40 ug/larvae topically applied to the dorsal abdomen; type: functional, organism-based
Bombyx mori [7] = test: Juvenile hormone activity in allatectomized fourth-instar larvae of Bombyx mori assessed as number of larvae transformed into larval-pupal intermediate at 40 ug/larvae topically applied to the dorsal abdomen; type: functional, organism-based
Bombyx mori [8] = test: Antijuvenile hormone activity in third-instar larvae of Bombyx mori assessed as induction of precocious metamorphosis at 10 ug/larvae topically applied to the dorsal abdomen; type: functional
Bombyx mori [9] = test: Antijuvenile hormone activity in third-instar larvae of Bombyx mori assessed as induction of precocious metamorphosis at 1 ug/larvae topically applied to the dorsal abdomen; type: functional

With `COC(C)(C)CCC[C@H](C)C/C=C/C(C)=C/C(=O)OC(C)C` the Activity (Bombyx mori [1]) was “Active”, the Activity (Bombyx mori [2]) was “inactive” and the Activity (Bombyx mori [3]) was “inactive”.
With `CCCCn1c(COc2ccc(C(=O)OCC)cc2)cc2ccccc21` the Activity (Bombyx mori [4]) was “inactive”, the Activity (Bombyx mori [5]) was 94% and the Activity (Bombyx mori [6]) was “Active”. The Activity (Bombyx mori [7]) was “inactive”, the Activity (Bombyx mori [8]) was 93% and the Activity (Bombyx mori [9]) was 65%.
`CCOC(=O)c1ccc(OCc2cc3ccccc3n2Cc2ccccc2)cc1` was tested, and the Activity (Bombyx mori [5]) was 84%, the Activity (Bombyx mori [7]) was “inactive” and the Activity (Bombyx mori [8]) was 73%. For the same molecule, the Activity (Bombyx mori [9]) was 73%.
`CCCCN1c2ccccc2C[C@H]1COc1ccc(C(=O)OCC)cc1` was tested, and the Activity (Bombyx mori [4]) was “Active”, the Activity (Bombyx mori [5]) was 82% and the Activity (Bombyx mori [6]) was “inactive”. The Activity (Bombyx mori [7]) was “inactive”, the Activity (Bombyx mori [8]) was 65% and the Activity (Bombyx mori [9]) was 5%.
`CCCCC(COc1ccc(C(=O)OCC)cc1)Cc1ccccc1` (stereo unspecified) gave an Activity (Bombyx mori [5]) of 12%, an Activity (Bombyx mori [8]) of 34% and an Activity (Bombyx mori [9]) of 90%.
`CCOC(=O)c1ccc(OC[C@@H]2Cc3ccccc3N2Cc2ccccc2)cc1` was tested, and the Activity (Bombyx mori [5]) was 28%, the Activity (Bombyx mori [8]) was 25% and the Activity (Bombyx mori [9]) was 5%.
Molecule `CCOC(=O)c1ccc(OCc2cc3ccccc3n2CC)cc1` has an Activity (Bombyx mori [5]) of 5%, an Activity (Bombyx mori [8]) of 5% and an Activity (Bombyx mori [9]) of 5%.
`CCCn1c(COc2ccc(C(=O)OCC)cc2)cc2ccccc21` showed an Activity (Bombyx mori [5]) of 90%, an Activity (Bombyx mori [8]) of 95% and an Activity (Bombyx mori [9]) of 67%.
